Experimental data as given in paper PMC8808171, “Nonselective TRPC channel inhibition and suppression of aminoglycoside-induced premature termination codon readthrough by the small molecule AC1903” (The Journal of Biological Chemistry, 2022).

Molecular target: T1, TRPC5:C5 (Homo sapiens, UniProt Q9UL62)
T1 construct: expressed in transfected cells; host or cells: HEK T-REx (tetracycline-induced)
T1 sequence (Q9UL62 1-973): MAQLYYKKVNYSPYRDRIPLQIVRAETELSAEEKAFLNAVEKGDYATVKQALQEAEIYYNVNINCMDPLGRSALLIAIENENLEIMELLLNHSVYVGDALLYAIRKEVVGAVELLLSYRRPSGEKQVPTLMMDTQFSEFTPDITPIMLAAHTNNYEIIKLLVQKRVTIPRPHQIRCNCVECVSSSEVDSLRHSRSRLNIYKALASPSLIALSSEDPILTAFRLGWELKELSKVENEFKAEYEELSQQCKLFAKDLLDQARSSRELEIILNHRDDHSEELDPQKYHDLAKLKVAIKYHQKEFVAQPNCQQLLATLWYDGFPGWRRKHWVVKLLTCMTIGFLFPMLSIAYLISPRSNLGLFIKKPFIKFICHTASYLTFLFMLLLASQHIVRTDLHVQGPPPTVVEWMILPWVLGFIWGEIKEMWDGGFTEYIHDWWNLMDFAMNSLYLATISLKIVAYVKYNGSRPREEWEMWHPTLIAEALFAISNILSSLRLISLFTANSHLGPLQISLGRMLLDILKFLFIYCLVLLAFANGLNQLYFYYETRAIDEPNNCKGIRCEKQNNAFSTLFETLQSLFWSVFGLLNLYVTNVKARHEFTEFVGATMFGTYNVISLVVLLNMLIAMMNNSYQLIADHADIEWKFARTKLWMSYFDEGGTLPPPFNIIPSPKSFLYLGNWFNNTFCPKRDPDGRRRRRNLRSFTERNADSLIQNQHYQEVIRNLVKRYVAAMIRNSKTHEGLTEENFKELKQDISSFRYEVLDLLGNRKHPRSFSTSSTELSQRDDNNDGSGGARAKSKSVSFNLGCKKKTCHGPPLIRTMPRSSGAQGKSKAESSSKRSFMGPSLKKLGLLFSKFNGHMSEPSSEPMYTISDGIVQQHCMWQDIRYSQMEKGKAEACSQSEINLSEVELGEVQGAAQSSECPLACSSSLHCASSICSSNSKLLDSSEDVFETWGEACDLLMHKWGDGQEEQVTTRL
Experiment: [Ca2+]i recordings (Fura-2), TRPC5:C5 in HEK T-REx cells
Type: cell-based
Settings: for IC50: HEK T-REx, 30 min preincubation
Procedure: Based on the findings described above, we wondered whether AC1903—which is typically used as a TRPC5 inhibitor at concentrations of 30–100 μM in cellular assays ([29], [56])—might have limited selectivity for TRPC5 channels and whether its effect on intracellular G418 levels and PTC readthrough might be the consequence of inhibition of other or multiple targets. All well-characterized TRPC channel inhibitors reported to date modulate multiple TRP(C) channels ([34], [35], [36]). […] Because limited data for the selectivity of AC1903 are available in the public domain, we decided to profile AC1903 against a selection of calcium-permeable cation channels by intracellular calcium ([Ca^2+]i) recordings using well-characterized cell lines and TRP channel activators ([46], [57], [58]), and the Ca^2+ indicator Fura-2. In these assays, cells (HEK 293, HEK T-REx, or CHO) overexpressing the relevant ion channel protein and loaded with Fura-2 AM (a cell-permeable precursor of Fura-2) were preincubated with various concentrations of AC1903 or vehicle (DMSO) for 30 min. Then, changes in ratiometric fluorescence (from background) were recorded upon addition of the respective ion channel activator.
Figure 4 AC1903 inhibits multiple TRP channels.A and C, representative [Ca^2+]i measurements from a single 96-well plate (N = 6; mean ± SD over technical replicates) showing inhibition of EA-mediated [Ca^2+]i responses by 0.1 to 100 μM AC1903 in (Tet+) HEK T-REx cells expressing TRPC5 (A) or TRPC4 (C). B and D, concentration–response data for experiments in (A) and (C) (scatter plots showing normalized data for three independent experiments; n/N = 3/18). Responses were calculated at 250 to 295 s compared to [Ca^2+]i at baseline (0–55 s). E and G, representative [Ca^2+]i measurements from a single 96-well plate (N = 6; mean ± SD over technical replicates) showing inhibition of OAG-mediated [Ca^2+]i responses by 0.1 to 100 μM AC1903 in (Tet+) HEK T-REx cells expressing TRPC3 (E) and WT HEK 293 cells transiently expressing TRPC6 (G). F and H, concentration–response data for experiments in (E) and (G) (scatter plots showing normalized data for three independent experiments; n/N = 3/18). Responses were calculated at 90 to 110 s compared with [Ca^2+]i at baseline (0–55 s). I, representative [Ca^2+]i measurements from a single 96-well plate (N = 6; mean ± SD over technical replicates) showing inhibition of the 4α-PDD-mediated [Ca^2+]i response by 0.1 to 100 μM AC1903 in CHO cells stably expressing TRPV4. J, concentration–response data for experiments in (I) (scatter plot showing normalized data for three independent experiments; n/N = 3/18). Responses were calculated at 290 to 300 s compared with [Ca^2+]i baseline (0–55 s). EA, (-)-englerin A; TRPC, transient receptor potential canonical. […]

IC50 (activator EA (30 nM)): 18 µM
IC50 (activator S1P (10 μM)): 3.5 µM
Hill slope (activator EA (30 nM)): -1.8
Hill slope (activator S1P (10 μM)): -1.6
SMILES: c1ccc(Cn2c(NCc3ccco3)nc3ccccc32)cc1 [AC1903]
